This note sets out measurements from patent US20120121692A1, “COMPOUNDS AND COMPOSITIONS COMPRISING CDK INHIBITORS AND METHODS FOR TREATING CANCER” (SHANDONG UNIVERSITY, priority 2009, published 2012).

One data set deals with HCT116 cells. Briefly: MTT cytotoxicity screening, human colon cancer cell line HCT116. Format: cell-based. From the text: Human colon cancer cell line HCT116 can be used for the preliminary cytotoxicity screening of the disclosed compounds as disclosed by Mosmann, T., “Rapid colorimetric assay for cellular growth and survival: application to proliferation and cytotoxicity assays.” J. Immunol. Methods, (1983) 65(1-2): p. 55-63 referred to herein further as the “MTT test” which is incorporated herein by reference in its entirety.
The disclosure of Mosmann recites the following. “MTT 93-(4,5-dimethylthirazol-2-yl)-2,5-diphenyl tetrazolium bromide; Sigman catalog no. M2128) was dissolved in PBS at 5 mg/ml and filtered to sterilize and remove a small amount of insoluble residue present in some batches of MTT. At the times indicated below, stock MTT solution (10 ml per 100 ml) was added to all wells of an assay, and plates were incubated at 37° C. for 4 h. Acid-siopropanol (100 ml of 0.04 N HCl in isopropanol) was added to all wells and mixed thoroughly to dissolve the dark blue crystals. After a few minutes at room temperature to ensure that all crystals were dissolved, the plates were read o a Dynatech MR580Microelisa reader, using a test wavelength of 570 nm, a reference wavelength of 630 nm, and a calibration setting of 1.99 (or 1.0 if the samples were strongly colored). Plates were normally read within 1 h of adding the isopropanol.
“Our final procedure was to add 0.01 ml MTT (5 mg/ml in phosphate-buffered saline) to 0.1 ml cells in growth medium. After 4 h at 37° C. for MTT cleavage, the formazan product was solublilized by the addition of 0.1 ml 0.04 N HCl in isopropanol. Optical density was measured on a Dynatech MR 580 plate reader, using a reference wavelength of 630 nm and a test wavelength of 570 nm.” 3-(4,5-Dimethylthiazol-2-yl)-2,5-diphenyltetrazolium bromide, a tetrazole, can pass through cellular membrane to enter into cells. This tetrazole may be reduced to the purple formazan in the mitochondria of living cells, which can diffuse out to form crystals. This crystal can be dissolved in the dimethyl sulfoxide to form a colored solution. The absorbance of this colored solution can be quantified by measuring at certain wavelength (490 nm) using a spectrophotometer. The quantity of the formazan crystal is proportional to the number of living cells.
As used herein, cells were cultured in McCoy's 5A medium supplemented with 10% heat-inactivated Fetal Bovine Serum (FBS) and 5% Penicillin/Streptomycin solution. McCoy's 5A, 1× (Iwakata & Grace modified) medium with L-Glutamine, DPBS, 1× w/o Ca and Mg, Penicillin/Streptomycin solution, Trypsin EDTA, 1× and PBS, 1× w/o Ca and Mg were purchased from Mediatech, Inc. (USA). FBS was purchased from Hyclone (USA).
The cytotoxicity of the compounds was estimated using the MTT assay. A 96-well plate was seeded with 100 μl medium containing HCT116 cells in suspension at a density of 2.5×10^4 cells/ml. After 24 hours of incubation, the cells were treated with the compounds, which were dissolved in DMSO (dimethyl sulfoxide) as stock solutions and diluted to final concentrations of 100 μM, 50 μM, 25 μM, 12.5 μM, 6.25 μM & 1 μM (for compounds tested in the micromolar concentrations) and 10 μM, 1 μM, 500 nM, 250 nM, 125 nM & 62.5 nM (for compounds tested in the nanomolar concentration range) using medium containing 0.1% DMSO. The final concentration of DMSO in the culture medium was maintained at 0.1%-0.001% (v/v). After 48 hrs incubation in the presence of test compounds, the spent medium was removed and the wells were washed twice with 100 μL of PBS solution. 100 μL of fresh medium and 10 μL of MTT (5 mg/ml in PBS) was added to the wells and incubated at 37° C. in dark for 4 hrs. The formazan product was dissolved by adding 100 μL of 100% DMSO after removing the medium from each well and was stabilized by adding 12.5 μL of Sorensen's glycine buffer to each well. […]

Where [1] appears, read: Homo sapiens, HCT-116, 48 hrs incubation, absorbance 490 nm, primary screening, read-out: IC50.
Setting [2] is: Homo sapiens, HCT-116, further evaluated after secondary screening (Table VIII), read-out: IC50 value.

Read-outs that look alike come from different tables or passages of the source.

For orientation: melting point means the temperature of the solid-liquid transition. Broadly, the IC50 is the point on the concentration scale where inhibition reaches its midpoint.

As to `COc1cc(OC)c(C2=CCN(C)CC2)c(O)c1C(=O)/C=C/c1cccc(C)c1` [Compound A5, (E)-1-(2-hydroxy-4,6-dimethoxy-3-(1-methyl-1,2,3,6-tetrahydropyridine-4-yl)phenyl)-3-meta-methylphenyl-2-propylene-1-one], the melting point is 165 to 166 °C. Besides, the IC50 with HCT116 cells (setting [1]) was determined as 8.89 µM. In the case of `COc1cccc(/C=C/C(=O)c2c(OC)cc(OC)c(CN3CCCCC3)c2O)c1` [Compound C3, (E)-1-(2-hydroxy-4,6-dimethoxy-3-(piperidin-1-ylmethyl)phenyl)-3-(3-methoxyphenyl)-2-propylene-1-one], the IC50 in the data set with HCT116 cells (setting [1]) was determined as 2.85 µM. `COc1cc(OC)c(C2=CCNCC2)c(O)c1C(=O)/C=C/c1ccccc1[N+](=O)[O-]` [Compound B3, (E)-1-(2-hydroxy-4,6-dimethoxy-3-(1,2,3,6-tetrahydropyridine-4-yl)phenyl)-3-(2-nitrophenyl)-2-propylene-1-one]: the melting point lay in the range of 128 to 130 °C. Besides, in the data set on HCT116 cells (setting [1]), the IC50 turned out to be 5.68 µM.

For the molecule `COc1cc(OC)c(C(=O)/C=C/c2ccco2)c(O)c1CN1CCCCC1` [Compound E31, (E)-3-(furan-2-yl)-1-(2-hydroxy-4,6-dimethoxy-3-(piperidine-1-ylmethyl)phenyl)-2-propylene-1-one], the melting point lay in the range of 95 to 96 °C. In addition, the concentration for half-maximal inhibition (IC50) in the data set with HCT116 cells (setting [1]) is 8.52 µM. Molecule `COc1cccc(/C=C/C(=O)c2c(OC)cc(OC)c(C3=CCN(C)CC3)c2O)c1` [Compound A6, (E)-1-(2-hydroxy-4,6-dimethoxy-3-(1-methyl-1,2,3,6-tetrahydropyridine-4-yl)phenyl)-3-(3-methoxyphenyl)-2-propylene-1-one] returned a melting point of 140 to 141 °C. Further, the IC50 with HCT116 cells (setting [1]) came to 6.78 µM. As for `COc1cc(OC)c(C2=CCNCC2)c(O)c1C(=O)/C=C/c1ccccc1` [Compound B1, 1-(2-hydroxy-4,6-dimethoxy-3-(1,2,3,6-tetrahydropyridine-4-yl)phenyl)-3-phenyl-2-propylene-1-one], the melting point is 118 to 120 °C. For the same molecule, in the data set on HCT116 cells (setting [1]), the IC50 is 8.41 µM. Moreover, in the data set with HCT116 cells (setting [2]), the IC50 was approximately 0.1 µM. Turning to `COc1cc(OC)c2c(=O)cc(-c3ccc(C)cc3)oc2c1C1=CCN(C)CC1` [Compound F3, 5,7-dimethoxy-8-(1-methyl-1,2,3,6-tetrahydropyridin-4-yl)-2-(4-methylphenyl)-4H-chromen-4-one], the melting point was 113 to 114 °C. Also, in the data set with HCT116 cells (setting [1]), the IC50 was found to be 21.1 µM. The like results for `COc1cc(OC)c(C2=CCN(C)CC2)c(O)c1C(=O)/C=C/c1cccc(Cl)c1` [Compound A7, (E)-3-(3-chlorophenyl)-1-(2-hydroxy-4,6-dimethoxy-3-(1-methyl-1,2,3,6-tetrahydropyridine-4-yl)phenyl)-2-propylene-1-one] were, in that order, 182 to 184 °C and 3.24 µM. In turn, `COc1cc(/C=C/C(=O)c2c(OC)cc(OC)c(C3=CCN(C)CC3)c2O)cc(OC)c1OC` [Compound A17, (E)-1-(2-hydroxy-4,6-dimethoxy-3-(1-methyl-1,2,3,6-tetrahydropyridine-4-yl)phenyl)-3-(3,4,5-trimethoxyphenyl)-2-propylene-1-one] came in with a melting point of 156 to 158 °C. The IC50 with HCT116 cells (setting [1]) is 18.4 µM. In the case of `CN1CC=C(c2c(O)cc(O)c3c(=O)cc(-c4ccccc4)oc23)CC1` [Compound G1, 5,7-hydroxy-8-(1-methyl-1,2,3,6-tetrahydropyridin-4-yl)-2-phenyl-4H-chromen-4-one], in the data set with HCT116 cells (setting [1]), the IC50 worked out at 3.76 µM.

`COc1ccc(-c2cc(=O)c3c(OC)cc(OC)c(C4=CCN(C)CC4)c3o2)cc1` [Compound F4, 5,7-dimethoxy-8-(1-methyl-1,2,3,6-tetrahydropyridin-4-yl)-2-(4-methoxyphenyl)-4H-chromen-4-one]: the melting point is 179 to 181 °C. For the same molecule, the IC50 in the data set on HCT116 cells (setting [1]) was 17.3 µM. The molecule `COc1cc(OC)c2c(=O)cc(-c3ccc(N(C)C)cc3)oc2c1C1=CCN(C)CC1` [Compound F5, 5,7-dimethoxy-8-(1-methyl-1,2,3,6-tetrahydropyridin-4-yl)-2-(4-(dimethylamino)-phenyl)-4H-chromen-4-one] came in with a melting point of 148 to 150 °C. Also, in the data set on HCT116 cells (setting [1]), the IC50 turned out to be 7.71 µM. For the molecule `COc1ccc(/C=C/C(=O)c2c(OC)cc(OC)c(C3=CCNCC3)c2O)cc1` [Compound B10, (E)-1-(2-hydroxy-4,6-dimethoxy-3-(1,2,3,6-tetrahydropyridine-4-yl)phenyl)-3-(4-methoxyphenyl)-2-propylene-1-one], the melting point lay in the range of 90 to 91 °C. Moreover, the IC50 with HCT116 cells (setting [1]) came to 11.4 µM.

Molecule `COc1cc(OC)c(C(=O)/C=C/c2cccc(C)c2)c(O)c1CN1CCCCC1` [Compound C5] gave a melting point of 113 to 114 °C.

Molecule `Cc1cccc(-c2cc(=O)c3c(O)cc(O)c(C4=CCN(C)CC4)c3o2)c1` [Compound G2, 5,7-hydroxy-8-(1-methyl-1,2,3,6-tetrahydropyridin-4-yl)-2-(3-methylphenyl)-4H-chromen-4-one] displayed a melting point of 179 to 180 °C. Besides, the concentration for half-maximal inhibition (IC50) with HCT116 cells (setting [1]) worked out at 3.65 µM. For `COc1cc(OC)c(C2=CCN(C)CC2)c(O)c1C(=O)/C=C/c1ccc(N(C)C)cc1` [Compound A14, (E)-3-(4-dimethylaminophenyl)-1-(2-hydroxy-4,6-dimethoxy-3-(1-methyl-1,2,3,6-tetrahydropyridine-4-yl)phenyl)-2-propylene-1-one] the same measures were 176 to 177 °C and 30.5 µM. In the case of `COc1cc(OC)c(C(=O)/C=C/c2ccc(C)cc2)c(O)c1CN1CCCCC1` [Compound C1, (E)-1-(2-hydroxy-4,6-dimethoxy-3-(piperidin-1-ylmethyl)phenyl)-3-(4-methylphenyl)-2-propylene-1-one], in the data set on HCT116 cells (setting [1]), the IC50 was 5.57 µM. Still for that read-out and setting: to `COc1cc(OC)c(C2=CCN(C)CC2)c(O)c1C(=O)/C=C/c1ccccc1` [Compound A1, (E)-1-(2-Hydroxy-4,6-dimethoxy-3-(1-methyl-1,2,3,6-tetrahydropyridine-4-yl)phenyl)-3-phenylprop-2-en-1-one] belongs 10.1 µM; to `COc1cc(OC)c2c(=O)cc(-c3ccccc3)oc2c1C1=CCN(C)CC1` [Compound F1, 5,7-Dimethoxy-8-(1-methyl-1,2,3,6-tetrahydropyridin-4-yl)-2-phenyl-4H-chromen-4-one], 21.1 µM. Consider `COc1cc(OC)c(C(=O)/C=C/c2cccc(C)c2)c(O)c1CN1CCOCC1` [Compound D7, (E)-3-(3-methylphenyl)-1-(2-hydroxy-4,6-dimethoxy-3-(morpholinemethyl)-phenyl)-2-propylene-1-one], for which the melting point lay in the range of 158 to 159 °C.

For the molecule `CN1CC[C@H](c2c(O)cc(O)c3c(=O)cc(-c4ccccc4Cl)oc23)[C@H](O)C1` [flavopiridol, reference compound], the IC50 in the data set with HCT116 cells (setting [2]) was approximately 0.13 µM. The molecule `COc1cc(OC)c(C(=O)/C=C/c2cc(OC)c(OC)c(OC)c2)c(O)c1CN1CCOCC1` [Compound D8, (E)-3-(3,4,5-trimethoxyphenyl)-1-(2-hydroxy-4,6-dimethoxy-3-(morpholinemethyl)-phenyl)-2-propylene-1-one] came in with a melting point of 169 to 170 °C. On the same count and under the same terms, for `COc1cc(OC)c(C(=O)/C=C/c2ccc(Br)cc2)c(O)c1CN1CCCCC1` [Compound C6] the value was 99 to 100 °C. Turning to “5,7-dimethoxy-8-(1-methyl-1,2,3,6-tetrahydropyridin-4-yl)-2-(3-methylphenyl)-4H-chromen-4-one [Compound F2]”, in the data set on HCT116 cells (48 hrs incubation, absorbance 490 nm, primary screening, read-out: IC50), the IC50 came to 20.6 µM.
